Legend:
[1] = target: T1, L‐type Ca^2+ channel current (I CaL) (Homo sapiens, UniProt Q13936); experiment: L‐type calcium current (I CaL), patch‐clamp in hiPSC‐derived cardiomyocytes; type: cell-based; details: hiPSC‐CMs, 0 mV, read-out: inhibition of inward I CaL
T1 construct: I CaL was recorded from hiPSC‐derived CMs; host or cells: Cor.4U hiPSC-derived cardiomyocytes
Source text: Manual patch‐clamp recordings of membrane currents (I NCX, L‐type Ca^2+ channel current [I CaL], human cardiac sodium 1.5 current [I Na], and I hERG) were undertaken using either an Axopatch 200B or Axopatch ID amplifier (Molecular Devices, USA), using the whole‐cell configuration. Cells were at least initially (except when recording I Na) perfused with an extracellular solution consisting of (in mM) 143 NaCl, 4 KCl, 1.8 CaCl2, 1.2 MgCl2, 5 glucose, and 10 HEPES (pH 7.4 with NaOH; osmolarity adjusted to 301 ± 3 mOsm). A slightly modified version was used for the rat ventricular CMs (in mM: 144 NaCl, 0.4 NaH2PO4, 4.0 KCl, 1.8 CaCl2, 0.53 MgSO4, 5.5 glucose, and 5.0 HEPES). Patch pipettes were pulled with a P‐2000 or P‐97 micropipette puller (Sutter Instruments, USA) from borosilicate glass capillaries and had resistances of between 2 and 4 MΩ when filled with any of the pipette solutions (see below). The data were filtered at 1 or 2 kHz and digitized at 10 kHz with acquisition and analysis performed by use of pClamp software (Versions 8–10; Molecular Devices; RRID:SCR_011323).
I CaL was recorded from hiPSC‐derived CMs (at room temperature, n = 2) and rat ventricular myocytes at 1 μM (n = 3; 5 cells) and at 10 μM (n = 4; 6 cells) in an extracellular solution supplemented with 4‐aminopyridine (3 mM) at 37 °C. […]

[2] = system: healthy rats; experiment: In vivo haemodynamics in healthy rats (supplement); design: species or system rat
Source text: In vivo haemodynamics in healthy rats
Experimental Animals and General Study Protocol
Rat was selected to the study as it is the most widely used rodent species in the toxicology studies performed for the small molecules during the drug development. […]
All animal experiments were made according to European Community Guidelines for the use of experimental animals and approved by Finnish National Animal Experiment Board. All studies complied with the ARRIVE guidelines, (NC3Rs Reporting Guidelines Working Group, 2010).
Specific pathogen free animals were housed in half -barrier rooms where special protecting clothing for personnel was required. Animal rooms were cleaned regularly 3 times per week and cages and bottles were […]
changed regular intervals once a week. Temperature was maintained at 22 ± 2°C and humidity at 55 ± 15%.
Light-dark cycle was lights on from 06.00 to 20.00h.
Male Sprague-Dawley rats (Harlan, Netherlands B.V.) were housed in polycarbonate cages (Makrolon® IV with stainless steel wire mesh lids). Maximally 5 rats were housed per cage with aspen chip bedding (Tapvei Ky, Kaavi, Finland). Rats had free access to water (twice filtered, Espoon Vesi) and rodent diet (SDS RM1
(P) SQC pelleted diet, Special Diet Services Ltd, Witham, England). Acclimation period before experiments was at least 5 days. Healthy 10-12 weeks aged weighing 300-400 g rats were randomized to ORM-11372, dobutamine or vehicle group.
At the end of the haemodynamic experiments, rats were terminated with an overdose of pentobarbital.
Anesthesia and ventilation
Rats were anaesthetised with isoflurane (2.25-2.5 %, Baxter) in carbogen (95 % O2 and 5 % CO2) and nitrous oxide (1:1) using a small rodent ventilator (Ugo Basile 7025, ~10 ml/kg, 60 strokes/min). The rats were infused with 0.9 % NaCl in […] at the stabilization and baseline level. Animals were placed on a heating table (+38°C). Tracheas were cannulated.
Systemic blood (SP) and left ventricular pressures (LVP) were measured with pressure transducers (BP:
Isotec, Hugo Sachs Elektronic, Germany; LVP: Mikro-Tip transducer SPR-249, Millar Instruments, USA). The signal was amplified (DC-bridge amplifier type 660, Hugo Sachs Elektronik, Germany), digitised (I/O connector block type SCB-68, National Instruments, USA), recorded and analysed (IHME 1.0.9, Fision Ltd, Finland). Left ventricular inotropic effect (LV +dP/dtmax) and relaxation (LV -dP/dtmin) and heart rate (HR) were analysed from LVP signal.
Blood sampling for the evaluation of plasma levels of the drug
At the end of each infusion, the blood samples (300-500 µl) were taken into chilled EDTA polypropylene tube (CapiJect®, Terumo) and centrifuged (4000 rpm, 10 min, at 4°C). Plasma was immediately frozen in polypropylene tubes and stored at –20°C. ORM-11372 and dobutamine were extracted from plasma samples using a liquid–liquid extraction and analysed using liquid chromatography–tandem mass spectrometry (Agilent Technologies series 1100 liquid chromatographic system and a Sciex LC-MS/MS API 4000 mass spectrometry). The lower limit of quantification for total plasma concentrations were 32.0 and 5.00 ng/ml from total for ORM-11372 and dobutamine, respectively. […]
The effects of dobutamine on blood pressure varies partially due to the use of racemate as active ingredient in the pharmaceutical formulation. (-)-dobutamine is α1-agonist and therefore causes increases in cardiac output and peripheral resistance. (+)-dobutamine acts via β1- and β2-adrenoceptors which leads to increase in heart rate and reduction in blood pressure 16.
Figure S20 Haemodynamics in healthy rats
Effects of ORM-11372 and dobutamine on haemodynamics in isoflurane anesthetized 10-12 weeks aged male Sprague-Dawley rats (Harlan, Netherlands B.V.) weighing 300-400 g. Shown are mean ± SEM and individual effects on the left ventricular contractility (LV+dP/dtmax, panel A), relaxation (LV-dP/dtmax, panel B), heart rate (panel C), and systolic arterial blood pressure (SAP, paned D). […]

[3] = 4 nM up to 92 nM free plasma concentration

T1 sequence (Q13936 whole entry): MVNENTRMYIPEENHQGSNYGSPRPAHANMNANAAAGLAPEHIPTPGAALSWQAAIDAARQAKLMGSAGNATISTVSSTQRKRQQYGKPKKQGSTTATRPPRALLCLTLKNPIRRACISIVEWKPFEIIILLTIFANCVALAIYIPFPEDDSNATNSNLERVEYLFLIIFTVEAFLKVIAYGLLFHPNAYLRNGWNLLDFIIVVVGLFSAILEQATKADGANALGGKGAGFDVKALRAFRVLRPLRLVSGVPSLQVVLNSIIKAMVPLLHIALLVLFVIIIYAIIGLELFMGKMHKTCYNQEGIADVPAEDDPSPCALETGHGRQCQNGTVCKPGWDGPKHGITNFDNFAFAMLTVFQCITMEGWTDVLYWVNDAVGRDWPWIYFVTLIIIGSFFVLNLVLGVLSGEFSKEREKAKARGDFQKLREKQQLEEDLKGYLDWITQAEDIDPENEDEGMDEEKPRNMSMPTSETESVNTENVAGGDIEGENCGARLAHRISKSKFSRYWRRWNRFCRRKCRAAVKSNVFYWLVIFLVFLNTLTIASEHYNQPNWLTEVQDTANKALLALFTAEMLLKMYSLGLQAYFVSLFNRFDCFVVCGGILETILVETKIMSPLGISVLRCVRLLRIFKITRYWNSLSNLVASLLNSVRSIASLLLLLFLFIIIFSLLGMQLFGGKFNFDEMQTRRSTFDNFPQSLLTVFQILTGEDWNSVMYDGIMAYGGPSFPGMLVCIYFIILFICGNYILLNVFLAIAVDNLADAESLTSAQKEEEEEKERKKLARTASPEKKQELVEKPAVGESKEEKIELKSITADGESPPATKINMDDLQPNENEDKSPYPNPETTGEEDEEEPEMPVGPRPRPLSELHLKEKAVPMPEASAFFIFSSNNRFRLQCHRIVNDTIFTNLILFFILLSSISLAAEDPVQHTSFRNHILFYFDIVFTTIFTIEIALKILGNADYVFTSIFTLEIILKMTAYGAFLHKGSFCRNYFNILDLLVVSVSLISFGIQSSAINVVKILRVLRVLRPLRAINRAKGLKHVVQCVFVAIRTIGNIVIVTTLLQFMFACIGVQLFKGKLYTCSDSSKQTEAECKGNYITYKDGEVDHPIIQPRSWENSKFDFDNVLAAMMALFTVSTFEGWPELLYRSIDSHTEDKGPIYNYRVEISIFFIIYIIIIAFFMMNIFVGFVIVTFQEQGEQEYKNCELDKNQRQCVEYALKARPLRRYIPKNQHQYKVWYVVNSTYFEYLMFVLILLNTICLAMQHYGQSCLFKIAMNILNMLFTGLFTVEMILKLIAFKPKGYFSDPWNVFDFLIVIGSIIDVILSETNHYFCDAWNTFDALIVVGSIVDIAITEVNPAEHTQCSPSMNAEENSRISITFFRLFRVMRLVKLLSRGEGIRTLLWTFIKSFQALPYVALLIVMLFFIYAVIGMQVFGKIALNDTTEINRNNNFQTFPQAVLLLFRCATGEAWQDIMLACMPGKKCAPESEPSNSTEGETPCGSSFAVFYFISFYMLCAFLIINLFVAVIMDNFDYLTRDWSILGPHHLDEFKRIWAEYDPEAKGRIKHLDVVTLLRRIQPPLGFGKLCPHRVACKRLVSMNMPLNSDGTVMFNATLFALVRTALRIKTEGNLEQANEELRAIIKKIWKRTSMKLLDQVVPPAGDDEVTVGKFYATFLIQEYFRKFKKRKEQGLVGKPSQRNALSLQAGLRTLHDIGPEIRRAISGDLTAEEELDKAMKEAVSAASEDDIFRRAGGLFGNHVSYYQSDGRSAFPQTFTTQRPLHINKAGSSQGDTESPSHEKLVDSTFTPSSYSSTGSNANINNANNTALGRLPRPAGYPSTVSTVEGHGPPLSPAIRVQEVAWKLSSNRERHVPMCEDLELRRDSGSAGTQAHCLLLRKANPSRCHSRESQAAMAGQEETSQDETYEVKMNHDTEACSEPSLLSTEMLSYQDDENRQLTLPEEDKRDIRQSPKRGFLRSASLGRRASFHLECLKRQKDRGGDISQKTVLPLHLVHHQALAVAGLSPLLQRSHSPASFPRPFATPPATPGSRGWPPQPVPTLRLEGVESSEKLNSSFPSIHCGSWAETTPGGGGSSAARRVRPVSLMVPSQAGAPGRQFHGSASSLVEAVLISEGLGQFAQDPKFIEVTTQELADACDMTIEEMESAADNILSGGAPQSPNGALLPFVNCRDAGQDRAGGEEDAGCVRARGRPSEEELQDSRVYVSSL
T1 sequence (Q08289 whole entry partner): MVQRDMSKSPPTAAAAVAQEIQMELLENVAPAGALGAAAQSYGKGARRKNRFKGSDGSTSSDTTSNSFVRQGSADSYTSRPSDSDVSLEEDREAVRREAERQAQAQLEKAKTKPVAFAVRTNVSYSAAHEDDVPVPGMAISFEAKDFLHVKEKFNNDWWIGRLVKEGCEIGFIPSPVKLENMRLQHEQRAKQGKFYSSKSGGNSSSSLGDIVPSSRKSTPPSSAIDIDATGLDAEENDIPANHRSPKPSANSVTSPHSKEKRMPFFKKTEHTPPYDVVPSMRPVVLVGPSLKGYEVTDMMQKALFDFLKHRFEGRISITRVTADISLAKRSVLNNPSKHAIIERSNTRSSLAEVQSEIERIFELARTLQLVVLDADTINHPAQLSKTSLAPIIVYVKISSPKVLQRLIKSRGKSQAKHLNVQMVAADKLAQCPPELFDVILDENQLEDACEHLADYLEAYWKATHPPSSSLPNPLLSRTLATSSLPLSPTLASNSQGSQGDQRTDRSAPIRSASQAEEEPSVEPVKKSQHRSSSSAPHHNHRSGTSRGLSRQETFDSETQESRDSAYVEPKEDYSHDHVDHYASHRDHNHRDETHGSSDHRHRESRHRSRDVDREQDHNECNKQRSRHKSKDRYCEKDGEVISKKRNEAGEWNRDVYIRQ
T1 sequence (P54289 25-946 partner limits assumed): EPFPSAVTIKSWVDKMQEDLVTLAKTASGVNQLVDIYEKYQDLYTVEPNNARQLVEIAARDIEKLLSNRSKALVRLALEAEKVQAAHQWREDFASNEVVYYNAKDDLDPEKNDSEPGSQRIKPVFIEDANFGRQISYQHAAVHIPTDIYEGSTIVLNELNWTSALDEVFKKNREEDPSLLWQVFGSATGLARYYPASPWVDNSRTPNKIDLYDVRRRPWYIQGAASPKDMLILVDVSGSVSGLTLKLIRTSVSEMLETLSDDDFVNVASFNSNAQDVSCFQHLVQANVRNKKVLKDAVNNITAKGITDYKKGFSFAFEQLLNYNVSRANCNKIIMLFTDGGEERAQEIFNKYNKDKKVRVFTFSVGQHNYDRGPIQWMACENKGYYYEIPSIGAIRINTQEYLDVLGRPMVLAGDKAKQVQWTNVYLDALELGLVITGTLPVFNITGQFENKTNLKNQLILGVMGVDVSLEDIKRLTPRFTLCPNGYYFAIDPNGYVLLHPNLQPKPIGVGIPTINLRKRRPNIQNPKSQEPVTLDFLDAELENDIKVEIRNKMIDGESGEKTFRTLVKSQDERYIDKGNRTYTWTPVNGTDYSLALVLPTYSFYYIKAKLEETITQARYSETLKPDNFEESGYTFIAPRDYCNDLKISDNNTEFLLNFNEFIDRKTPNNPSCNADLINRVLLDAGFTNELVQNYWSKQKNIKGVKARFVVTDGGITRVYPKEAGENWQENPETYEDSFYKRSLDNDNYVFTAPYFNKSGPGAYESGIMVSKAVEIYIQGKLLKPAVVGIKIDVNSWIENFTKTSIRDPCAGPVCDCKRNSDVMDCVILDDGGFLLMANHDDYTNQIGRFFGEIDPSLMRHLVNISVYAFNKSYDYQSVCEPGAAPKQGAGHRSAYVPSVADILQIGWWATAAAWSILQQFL
T1 sequence (P54289 947-1103 partner limits assumed): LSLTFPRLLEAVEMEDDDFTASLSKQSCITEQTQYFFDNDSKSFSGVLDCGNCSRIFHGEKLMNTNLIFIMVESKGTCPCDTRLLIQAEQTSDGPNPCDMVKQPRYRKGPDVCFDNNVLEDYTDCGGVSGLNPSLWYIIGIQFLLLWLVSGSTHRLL

SMILES: Nc1cccc(-c2ccc(CNc3ccc(F)cc3)o2)c1 [ORM‐11372]
- inhibition at 1 µM [1]: 14.1%
- absolute maximum positive inotropic effect [2]: 44%
- free plasma concentration achieving 25% positive inotropic effect [2]: 36 ± 1.4 nM
- free plasma concentration at absolute maximum positive inotropic effect [2]: 351 ± 92 nM
- free plasma concentration at maximum inotropic effect without any other effects [2]: 92 ± 8 nM
- free plasma concentration at the 10±2% (ORM-11372) / 16±3% (dobutamine) inotropic effect [2]: 4 ± 0.3 nM
- left ventricular relaxation [2, 3]: did not affect
- systolic blood pressure [2, 3]: did not affect
- improvement of relaxation (tendency) ([2]; 36 nM free plasma): 7.5±4.5%
- effective free concentration range in rat plasma ([2]; Figure S20): 4 to 300 nM
- maximum inotropic effect without any other effects ([2]; at 92±8 nM free plasma): 34±5%
- positive inotropic effect ([2]; at free plasma concentration 4±0.3 nM (ORM-11372), 16±0.8 nM (dobutamine)): 10±2%
- decrease in heart rate ([2]; free plasma concentrations higher than 240 nM): -7 to -12%
- relaxation ([2]; high concentration (≥240 nM)): impaired relaxation
- heart rate ([2]; up to 240 nM free plasma concentration): no effect
